Results on 37 compounds are retold here after US20240174603A1 (Rappta Therapeutics Oy, priority 2021, published 2024).

By GI50 is commonly meant the concentration giving 50% growth inhibition. Read a high GI50 as less potent growth inhibition.

The experiment concerns LNCaP cells. In words: LNCaP cell viability assay (MTS). The experiment is classed as cell-based. To be noted: Homo sapiens, LNCaP, 48 h, LNCaP cell line. As to the method:
LNCaP cell line was used for the cell viability assay. LNCaP cells were plated in 96-well plates at a density of 5000 cells per well. After 24 hours of plating, the cells were treated with increasing doses of compound (e.g., compounds 1-269) ranging from 1 μM to 80 μM. Relative cell numbers were analyzed after 48 hours using 3-(4,5-dimethylthiazol-2-yl)-5-(3-carboxymethoxyphenyl)-2-(4-sulfophenyl)-2H-tetrazolium (MTS) assay (Promega) according to the manufacturer's instructions.
The cell viability data was analyzed with GraphPad Prism software. The values were log transformed and analyzed with non-linear regression (curve-fit) using log(inhibitor) vs. response-variable slope (four parameters) and constraining the bottom to equal zero. Unless otherwise indicated, the GI50 values provided in Table 113 correspond to the LNCaP cell viability assays.
In turn, `O=S(=O)(NC(c1ccc(F)c(C(F)(F)F)c1)C1CC1)c1ccc(OC(F)(F)F)cc1` (stereo not shown) [Compound 34, N-(cyclopropyl(4-fluoro-3-(trifluoromethyl)phenyl)methyl)-4-(trifluoromethoxy)benzenesulfonamide] showed a GI50 of 40.1 µM.

As to `COCCC(NS(=O)(=O)c1ccc(OC(F)(F)F)cc1)c1ccc(Cl)c(Cl)c1` (stereo not shown) [Compound 35, N-(1-(3,4-dichlorophenyl)-3-methoxypropyl)-4-(trifluoromethoxy)benzenesulfonamide], the GI50 is 50.9 µM.

Turning to `O=S(=O)(NC(c1cccc(C(F)(F)F)c1)C1CCCCC1)c1ccc(OC(F)(F)F)cc1` (stereo not shown) [Compound 36, N-(cyclohexyl(3-(trifluoromethyl)phenyl)methyl)-4-(trifluoromethoxy)benzenesulfonamide], halving of growth (GI50) required 29.1 µM.

With `COC(=O)CC(NS(=O)(=O)c1ccc(OC(F)(F)F)cc1)C1CCCCC1` (stereo not shown) [Compound 37, Methyl 3-cyclohexyl-3-((4-(trifluoromethoxy)phenyl)sulfonamido)propanoate], the GI50 came to 60 µM.

Take `COC(=O)CC(NS(=O)(=O)c1ccc(OC(F)(F)F)cc1)c1cccc(Br)c1` (stereo not shown) [Compound 38, Methyl 3-(3-bromophenyl)-3-((4-(trifluoromethoxy)phenyl)sulfonamido)propanoate]: the GI50 was 66.5 µM.

Compound `COC(=O)C[C@H](NS(=O)(=O)c1ccc(OC(F)(F)F)cc1)c1cc(Cl)cc(Cl)c1` [Compound 39, Methyl (S)-3-(3,5-dichlorophenyl)-3-((4-(trifluoromethoxy)phenyl)sulfonamido)propanoate] registered a GI50 of 35.3 µM.

With `COC(=O)[C@H](Cc1ccc(Cl)c(Cl)c1)NS(=O)(=O)c1ccc(OC(F)(F)F)cc1` [Compound 40, Methyl (S)-3-(3,4-dichlorophenyl)-2-((4-(trifluoromethoxy)phenyl)sulfonamido)propanoate], the GI50 amounted to 57.2 µM.

Turning to `O=S(=O)(NC(c1cccc(Cl)c1)C1CCCC1)c1ccc(OC(F)(F)F)cc1` (stereo not shown) [Compound 41, N-((3-chlorophenyl)(cyclopentyl)methyl)-4-(trifluoromethoxy)benzenesulfonamide], halving of growth (GI50) required 37.3 µM.

The compound `CCOC(=O)C(Cc1cc(Cl)sc1Cl)NS(=O)(=O)c1ccc(OC(F)(F)F)cc1` (stereo not shown) [Compound 42, Ethyl 3-(2,5-dichlorothiophen-3-yl)-2-((4-(trifluoromethoxy)phenyl)sulfonamido)propanoate] displayed a GI50 of 57.8 µM.

As to `CCOC(=O)[C@@H](Cc1ccc(OC)cc1)NS(=O)(=O)c1ccc(OC(F)(F)F)cc1` [Compound 43, Ethyl (R)-3-(4-methoxyphenyl)-2-((4-(trifluoromethoxy)phenyl)sulfonamido)propanoate], the GI50 stood at 72 µM.

The compound `O=S(=O)(NC(Cc1cccc(Br)c1)CC(F)(F)F)c1ccc(OC(F)(F)F)cc1` (stereo not shown) [Compound 44, N-(1-(3-bromophenyl)-4,4,4-trifluorobutan-2-yl)-4-(trifluoromethoxy)benzenesulfonamide] had a GI50 of 59 µM.

Turning to `CCOC(=O)C(Cc1ccccc1Cl)NS(=O)(=O)c1ccc(OC(F)(F)F)cc1` (stereo not shown) [Compound 45, Ethyl 3-(2-chlorophenyl)-2-((4-(trifluoromethoxy)phenyl)sulfonamido)propanoate], halving of growth (GI50) required 46 µM.

`CCOC(=O)CC(NS(=O)(=O)c1ccc(OC(F)(F)F)cc1)c1cccc(Br)c1` (stereo not shown) [Compound 46, Ethyl 3-(3-bromophenyl)-3-((4-(trifluoromethoxy)phenyl)sulfonamido)propanoate] had a GI50 of 49 µM.

Take `CCOC(=O)C(CC(C)CC)NS(=O)(=O)c1ccc(OC(F)(F)F)cc1` (stereo not shown) [Compound 47, Ethyl 4-methyl-2-((4-(trifluoromethoxy)phenyl)sulfonamido)hexanoate]: the GI50 amounted to 70 µM.

`CN(Cc1ccccc1Br)C(=O)CCNS(=O)(=O)c1ccc(OC(F)(F)F)cc1` [Compound 48, N-(2-bromobenzyl)-N-methyl-3-((4-(trifluoromethoxy)phenyl)sulfonamido)propenamide] showed a GI50 of 43 µM. Compared with the last compound, the GI50 is about 1.6-fold lower.

The compound `O=S(=O)(NCC1CCCCC1c1ccccc1)c1ccc(OC(F)(F)F)cc1` (stereo not shown) [Compound 49, N-((2-phenylcyclohexyl)methyl)-4-(trifluoromethoxy)benzenesulfonamide] had a GI50 of 39 µM.

Take `O=S(=O)(NCCC(O)(C(F)(F)F)C(F)(F)F)c1ccc(OC(F)(F)F)cc1` [Compound 50, N-(4,4,4-trifluoro-3-hydroxy-3-(trifluoromethyl)butyl)-4-(trifluoromethoxy)benzenesulfonamide]: halving of growth (GI50) required 71 µM.

On to `O=S(=O)(NCCC(c1ccccc1)C(F)(F)F)c1ccc(OC(F)(F)F)cc1` (stereo not shown) [Compound 51, N-(4,4,4-trifluoro-3-phenylbutyl)-4-(trifluoromethoxy)benzenesulfonamide], for which it took 55 µM to inhibit growth by half (GI50).

With `CCC(C#N)Oc1cccc(CNS(=O)(=O)c2ccc(OC(F)(F)F)cc2)c1` (stereo not shown) [Compound 52, N-(3-(1-cyanopropoxy)benzyl)-4-(trifluoromethoxy)benzenesulfonamide], the GI50 was 72 µM.

As for `COCCC1(CNS(=O)(=O)c2ccc(OC(F)(F)F)cc2)CCCCC1` [Compound 53, N-((1-(2-methoxyethyl)cyclohexyl)methyl)-4-(trifluoromethoxy)benzenesulfonamide], it took 66 µM to inhibit growth by half (GI50).

For the compound `CCCCN(CCNS(=O)(=O)c1ccc(OC(F)(F)F)cc1)Cc1cccc(Cl)c1` [Compound 54, N-(2-(butyl(3-chlorobenzyl)amino)ethyl)-4-(trifluoromethoxy)benzenesulfonamide], halving of growth (GI50) required 33 µM.

On to `CC(C)CCOc1ccccc1CCNS(=O)(=O)c1ccc(OC(F)(F)F)cc1` [Compound 55, N-(2-(isopentyloxy)phenethyl)-4-(trifluoromethoxy)benzenesulfonamide], for which the GI50 came out at 57 µM. This GI50 lies about 1.7-fold higher than the previous one.

`O=S(=O)(NCC1(c2c(Cl)cccc2Cl)CCC1)c1ccc(OC(F)(F)F)cc1` [Compound 56, N-((1-(2,6-dichlorophenyl)cyclobutyl)methyl)-4-(trifluoromethoxy)benzenesulfonamide] came in with a GI50 of 30 µM.

`O=S(=O)(NCC1(c2cccc(C(F)(F)F)c2)CCC1)c1ccc(OC(F)(F)F)cc1` [Compound 57, 4-(trifluoromethoxy)-N-((1-(3-(trifluoromethyl)phenyl)cyclobutyl)methyl)benzenesulfonamide] yielded a GI50 of 38 µM. This GI50 and that of the compound before are within 1.5-fold of each other.

Take `CC(C)N(C)c1ccccc1CNS(=O)(=O)c1ccc(OC(F)(F)F)cc1` [Compound 58, N-(2-(isopropyl(methyl)amino)benzyl)-4-(trifluoromethoxy)benzenesulfonamide]: it took 20 µM to inhibit growth by half (GI50). This GI50 is about 1.9-fold lower than that of the compound before.

Compound `O=S(=O)(NCc1ccccc1COC1CCCCC1)c1ccc(OC(F)(F)F)cc1` [Compound 59, N-(2-((cyclohexyloxy)methyl)benzyl)-4-(trifluoromethoxy)benzenesulfonamide] displayed a GI50 of 23 µM. The GI50 values of the last two compounds are within 1.5-fold of each other.

The compound `Cc1ccc(C2(CNS(=O)(=O)c3ccc(OC(F)(F)F)cc3)CC2)c(C)c1` [Compound 60, N-((1-(2,4-dimethylphenyl)cyclopropyl)methyl)-4-(trifluoromethoxy)benzenesulfonamide] registered a GI50 of 44 µM.

The compound `O=S(=O)(NCC1(c2cccs2)CCCC1)c1ccc(OC(F)(F)F)cc1` [Compound 61, N-((1-(thiophen-2-yl)cyclopentyl)methyl)-4-(trifluoromethoxy)benzenesulfonamide] returned a GI50 of 38 µM. This GI50 and that of the compound before are within 1.5-fold of each other.

Compound `O=S(=O)(NCc1cc(Cl)ccc1OC(F)F)c1ccc(OC(F)(F)F)cc1` [Compound 62, N-(5-chloro-2-(difluoromethoxy)benzyl)-4-(trifluoromethoxy)benzenesulfonamide] showed a GI50 of 70 µM.

The compound `CC(C)CN(CCNS(=O)(=O)c1ccc(OC(F)(F)F)cc1)CC(C)C` [Compound 63, N-(2-(diisobutylamino)ethyl)-4-(trifluoromethoxy)benzenesulfonamide] had a GI50 of 60 µM.

As for `CCCCN(CCCNS(=O)(=O)c1ccc(OC(F)(F)F)cc1)Cc1ccccc1` [Compound 64, N-(3-(benzyl(butyl)amino)propyl)-4-(trifluoromethoxy)benzenesulfonamide], halving of growth (GI50) required 36 µM.

`CC(C)(C)OC(=O)N1CC(F)(F)CC1CNS(=O)(=O)c1ccc(OC(F)(F)F)cc1` (stereo not shown) [Compound 65, Tert-butyl 4,4-difluoro-2-(((4-(trifluoromethoxy)phenyl)sulfonamido)methyl)pyrrolidine-1-carboxylate] gave a GI50 of 43 µM.

`CC[C@H](NS(=O)(=O)c1ccc(OC(F)(F)F)cc1)c1cc(F)ccc1F` [Compound 66, (S)—N-(1-(2,5-difluorophenyl)propyl)-4-(trifluoromethoxy)benzenesulfonamide] gave a GI50 of 35 µM.

`CC(Cc1c(Cl)cccc1Cl)NS(=O)(=O)c1ccc(OC(F)(F)F)cc1` (stereo not shown) [Compound 67, N-(1-(2,6-dichlorophenyl)propan-2-yl)-4-(trifluoromethoxy)benzenesulfonamide] yielded a GI50 of 50 µM.

In the case of `CCOC(=O)CC(NS(=O)(=O)c1ccc(OC(F)(F)F)cc1)c1ccc(OC(C)C)c(OC)c1` (stereo not shown) [Compound 68, Ethyl 3-(4-isopropoxy-3-methoxyphenyl)-3-((4-(trifluoromethoxy)phenyl)sulfonamido)propanoate], halving of growth (GI50) required 72 µM.

In turn, `O=S(=O)(NC(c1cc(Cl)cc(Cl)c1)C1CCCCC1)c1ccc(OC(F)(F)F)cc1` (stereo not shown) [Compound 69, N-(cyclohexyl(3,5-dichlorophenyl)methyl)-4-(trifluoromethoxy)benzenesulfonamide] displayed a GI50 of 9 µM. Compared with the last compound, the GI50 is about 8-fold lower.

As for `CC(NS(=O)(=O)c1ccc(OC(F)(F)F)cc1)C1(c2ccc(Br)cc2)CC1` (stereo not shown) [Compound 70, N-(1-(1-(4-bromophenyl)cyclopropyl)ethyl)-4-(trifluoromethoxy)benzenesulfonamide], the GI50 is 25 µM.
